Test results taken from patent US10780101B2, “Amide derivatives of squalamine for the treatment of infections” (VIRBAC, priority 2016, dated 2020).
≈ marks a conversion by molar mass, not a printed value. Read-outs that look alike come from different tables or passages of the source.

How the values were obtained:
[1] = system: CHO-K1 cells; assay: WST1 cytotoxicity test on CHO-K1 cells; assay type: cell-based, Chinese hamster; details: Cricetulus griseus, read-out: IC50 (μg/mL) CHO
Outline: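 CHO-K1 cells pre-grown 24 h, then exposed to increasing compound concentrations in duplicate for 24 h at 37° C, 5% CO2. Viability read after 20 min with 10% WST-1 in PBS at 450 nm; IC50 from nonlinear regression as concentration cutting viability 50%.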

[2] = system: S. aureus Animal (340); assay: MIC determination, S. aureus animal (340); assay type: cell-based; details: Staphylococcus aureus; Gram-positive; Mueller-Hinton medium, 24 h at 37° C.
Outline: (§1)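 Broth microdilution in Mueller-Hinton medium; compounds from 5 mg/mL stock in DMSO/methanol (50/50), twofold serial dilutions, inoculum adjusted to OD 0.01. Plates incubated 24 h at 37 °C, humid atmosphere; OD read at 620 nm to derive MIC, duplicates.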

[3] = system: E. coli Human ATCC 28922; assay: MIC determination, E. coli human ATCC 28922; assay type: cell-based; details: Escherichia coli, ATCC28922; Gram-negative; Mueller-Hinton medium, 24 h at 37° C.
Outline: as §1

[4] = system: P. aeruginosa (1051575); assay: Potentiation of erythromycin activity (combination MIC); assay type: cell-based, Pseudomonas aeruginosa; details: erythromycin 2 μg/mL; concentration of compound required to restore antibiotic activity
Procedure: (§2) This method requires the use of a 96-well plate: 100 μL of a liquid culture medium are placed in each well and then seeded with the microbial suspension prepared previously. The required volume to be seeded is calculated for an OD of 0.01, which corresponds to about 5×10^6 bacteria in each well. In this plate, the first line corresponds to a negative control (200 μL of sterile culture medium in each well), the second line corresponds to a positive control (100 μL of sterile culture medium+100 μL of the bacterial suspension), and the third line contains 192 μL of culture medium; 8 μL of compound of formula (I) to be tested are placed in each well. Thereafter, a cascade dilution is performed from this line. L of a doxycycline solution (1 mg dissolved in 20 mL) are then added to each well of lines 3 to 8 to obtain a final antibiotic concentration of 2 μg/mL. 92 μL of bacterial suspension are then added to lines 3 to 8. The results are read (the determination of the MIC (2 μg/mL of doxycycline) in the presence of X g/mL of compound of formula (I)) after 24 hours of incubation at 37° C. under a humid atmosphere. After 24 hours of incubation at 37° C., 40 μL of nitro tetrazolium iodide are added to each well to reveal the presence of live bacteria by staining the medium pink.
The procedure is identical to that indicated in Example 5 above. 8 μL of an antibiotic solution under consideration (1 mg dissolved in 20 mL) are added to obtain a final antibiotic concentration of 2 μg/mL instead of 8 μL of a doxycycline solution.
(§3) The results are given in table V. They indicate the concentration of compound of formula (I) required to be able to restore the activity of the antibiotic under consideration.

[5] = system: P. aeruginosa Human ATCC 27853; assay: MIC determination, P. aeruginosa human ATCC 27853; assay type: cell-based; details: Pseudomonas aeruginosa, ATCC27853; Gram-negative; Mueller-Hinton medium, 24 h at 37° C.
Outline: as §1

[6] = system: E. coli Animal (1956); assay: MIC determination, E. coli animal (1956); assay type: cell-based; details: Escherichia coli; Gram-negative; Mueller-Hinton medium, 24 h at 37° C.
Outline: as §1

[7] = system: S. aureus Human ATCC 25923; assay: MIC determination, S. aureus human ATCC 25923; assay type: cell-based; details: Staphylococcus aureus, ATCC25923; Gram-positive; Mueller-Hinton medium, 24 h at 37° C.
Outline: as §1

[8] = system: S. intermedius Animal (1051997); assay: MIC determination, S. intermedius animal (1051997); assay type: cell-based; details: Staphylococcus intermedius; Gram-positive; Mueller-Hinton medium, 24 h at 37° C.
Outline: as §1

[9] = system: P. aeruginosa (1051575); assay: Potentiation of chloramphenicol activity (combination MIC); assay type: cell-based, Pseudomonas aeruginosa; details: chloramphenicol 2 μg/mL; concentration of compound required to restore antibiotic activity
Procedure: as §2, with “L of a doxycycline solution (1 mg dissolved in 20 mL) are then added to each well of lines 3 to 8 to obtain a final antibiotic concentration of 2 μg/mL.” left out
The procedure is identical to that indicated in Example 5 above. […]
as §3

[10] = system: P. aeruginosa Animal (1051575); assay: MIC determination, P. aeruginosa animal (1051575); assay type: cell-based; details: Pseudomonas aeruginosa; Gram-negative; Mueller-Hinton medium, 24 h at 37° C.
Outline: as §1

[11] = system: E. faecalis Human ATCC 29212; assay: MIC determination, E. faecalis human ATCC 29212; assay type: cell-based; details: Enterococcus faecalis, ATCC29212; Gram-positive; Mueller-Hinton medium, 24 h at 37° C.
Outline: as §1

[12] = system: P. aeruginosa (1051575); assay: Potentiation of doxycycline activity (combination MIC); assay type: cell-based, Pseudomonas aeruginosa; details: in presence of doxycycline 2 μg/mL; 24 hours at 37° C.

Row | SMILES | IC50 ([1]; Table III, WST1 test, CHO-K1 cells, 24 hours) [µg/mL] | MIC [2] [µg/mL] | MIC [3] [µg/mL] | MIC P. aeruginosa (1051575) compound + erythromycin [4] [µg/mL] | MIC [5] [µg/mL] | MIC [6] [µg/mL] | MIC [7] [µg/mL] | MIC [8] [µg/mL] | MIC P. aeruginosa (1051575) compound + chloramphenicol [9] [µg/mL] | MIC [10] [µg/mL] | MIC [11] [µg/mL] | IC50 ([1]; CHO-K1, 24 h) [µg/mL] | MIC - P. aeruginosa (1051575): content of compound of formula (I) to restore the doxycycline activity (at 2 μg/mL) [12] [µg/mL]
1 | CC(C)NC(=O)CC[C@@H](C)[C@H]1CCC2C3C(C[C@H](O)[C@@]21C)[C@@]1(C)CC[C@H](NCCNCCNCCNCCNCCN)CC1C[C@H]3O (stereo partly drawn) [(21), 3β-(pentaethylenehexamine)-N-isopropylcholamide] | 60 (≈ 90.4 µM) | 17 (≈ 25.6 µM) | 130 (≈ 196 µM) | 30 | 130 (≈ 196 µM) | 30 (≈ 45.2 µM) | 17 (≈ 25.6 µM) | 8 (≈ 12 µM) | 8 | 30 (≈ 45.2 µM) | 30 (≈ 45.2 µM) | – | –
2 | CC(C)N(C(=O)CC[C@@H](C)[C@H]1CCC2C3C(CC[C@@]21C)[C@@]1(C)CC[C@H](NCCCNCCCN)CC1C[C@H]3O)C(C)C (stereo partly drawn) [(37), 3β-norspermidino-N-diisopropylchenodeoxycholamide] | – | 2 (≈ 3.4 µM) | 15 (≈ 25.5 µM) | 7 | 30 (≈ 50.9 µM) | 4 (≈ 6.79 µM) | 4 (≈ 6.79 µM) | 1 (≈ 1.7 µM) | 2 | 15 (≈ 25.5 µM) | 4 (≈ 6.79 µM) | 35 (≈ 59.4 µM) | 2
3 | CC(C)NC(=O)CC[C@@H](C)[C@H]1CCC2C3CCC4C[C@@H](NCCCN(CCCN)CCCN)CC[C@]4(C)C3C[C@H](O)[C@@]21C (stereo partly drawn) [(42), 3β-(tris(3-aminopropyl)amine)-N-isopropyldeoxycholamide] | – | 4 (≈ 6.62 µM) | > 120 | 8 | 30 (≈ 49.7 µM) | 30 (≈ 49.7 µM) | 4 (≈ 6.62 µM) | 1 (≈ 1.66 µM) | 2 | 60 (≈ 99.3 µM) | 30 (≈ 49.7 µM) | 40 (≈ 66.2 µM) | 1
4 | CC(C)NC(=O)CC[C@@H](C)[C@H]1CCC2C3C(C[C@H](O)[C@@]21C)[C@@]1(C)CC[C@H](NCCCN(CCCN)CCCN)CC1C[C@H]3O (stereo partly drawn) [(43), 3β-(tris(3-aminopropyl)amine)-N-isopropylcholamide] | – | 16 (≈ 25.8 µM) | 125 (≈ 202 µM) | 30 | 125 (≈ 202 µM) | 60 (≈ 96.8 µM) | 16 (≈ 25.8 µM) | 8 (≈ 12.9 µM) | 4 | 60 (≈ 96.8 µM) | 60 (≈ 96.8 µM) | 38 (≈ 61.3 µM) | 1
5 | CC(C)NC(=O)CC[C@@H](C)[C@H]1CCC2C3C(CC[C@@]21C)[C@@]1(C)CC[C@H](NCCN(CCN)CCN)CC1C[C@H]3O (stereo partly drawn) [(45), 3β-(tris(2-aminoethyl)amine)-N-isopropylchenodeoxycholamide] | – | 4 (≈ 7.12 µM) | 110 (≈ 196 µM) | 28 | 110 (≈ 196 µM) | 14 (≈ 24.9 µM) | 7 (≈ 12.5 µM) | 2 (≈ 3.56 µM) | 7 | 28 (≈ 49.8 µM) | 14 (≈ 24.9 µM) | 60 (≈ 107 µM) | 7
6 | CC(C)NC(=O)CC[C@@H](C)[C@H]1CCC2C3CCC4C[C@@H](NCCCN(CCCN)CCCN)CC[C@]4(C)C3CC[C@@]21C (stereo partly drawn) [(49), 3β-(tris(3-aminopropyl)amine)-N-isopropyllithocholamide] | – | 4 (≈ 6.8 µM) | 120 (≈ 204 µM) | 30 | 120 (≈ 204 µM) | 30 (≈ 51 µM) | 4 (≈ 6.8 µM) | 2 (≈ 3.4 µM) | 4 | 60 (≈ 102 µM) | 15 (≈ 25.5 µM) | 6 (≈ 10.2 µM) | 4
7 | CC(C)N(C(=O)CC[C@@H](C)[C@H]1CCC2C3C(CC[C@@]21C)[C@@]1(C)CC[C@H](NCCCNCCCCNCCCN)CC1C[C@H]3O)C(C)C (stereo partly drawn) [(50), 3β-spermino-N,N-diisopropylchenodeoxycholamide] | – | 2 (≈ 3.03 µM) | > 130 | 4 | 17 (≈ 25.8 µM) | 17 (≈ 25.8 µM) | 4 (≈ 6.06 µM) | 2 (≈ 3.03 µM) | 2 | 17 (≈ 25.8 µM) | 4 (≈ 6.06 µM) | 25 (≈ 37.9 µM) | 2
8 | C[C@H](CCC(=O)NC1CCCCC1)[C@H]1CCC2C3C(CC[C@@]21C)[C@@]1(C)CC[C@H](NCCCNCCCCNCCCN)CC1C[C@H]3O (stereo partly drawn) [(51), 3β-spermino-N-cyclohexylchenodeoxycholamide] | – | 2 (≈ 3.04 µM) | 105 (≈ 160 µM) | 8 | 16 (≈ 24.3 µM) | 16 (≈ 24.3 µM) | 4 (≈ 6.08 µM) | 1 (≈ 1.52 µM) | 2 | 16 (≈ 24.3 µM) | 2 (≈ 3.04 µM) | 13 (≈ 19.8 µM) | 2
